The values below are quoted from earlier work in patent US20200246376A1, “HYDROGEN BASED COMPOSITIONS” (HYDROGEN4HEALTH PTY LTD, priority 2019, published 2020).

SMILES strings stand for the structures.

Regarding `[HH]` [molecular hydrogen, hydrogen], the “saturation of molecular hydrogen in water” value (hydrogen water prepared by electrolysis) is “around 1.6 ppm”. Where the note is “standard temperature and pressure (STP)”, the “typical saturation of hydrogen gas in water” value is 1.6 mg/L.
